Data published in patent publication US9738655B2, “Tetrahydroisoquinolines containing substituted azoles as factor XIa inhibitors” (BRISTOL-MYERS SQUIBB COMPANY, priority 2013, dated 2017).
Structures can show the parent of a compound that is named as a salt. Where two headings read alike, the source gives them in different places.

Legend:
[1] = target: purified human plasma kallikrein (Homo sapiens (Human), UniProt P03952); assay: Plasma kallikrein enzyme inhibition assay (chromogenic substrate S-2302); type: biochemical
Sequence of purified human plasma kallikrein (P03952 391-638): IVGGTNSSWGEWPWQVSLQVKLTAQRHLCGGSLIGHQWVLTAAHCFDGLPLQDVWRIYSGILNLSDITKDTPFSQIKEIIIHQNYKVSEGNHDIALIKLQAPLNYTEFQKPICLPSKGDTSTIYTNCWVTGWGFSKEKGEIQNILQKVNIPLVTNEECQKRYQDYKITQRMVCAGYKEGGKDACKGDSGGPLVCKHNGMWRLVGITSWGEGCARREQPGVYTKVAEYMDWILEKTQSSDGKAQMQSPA
Sequence of purified human plasma kallikrein (P03952 20-390 partner): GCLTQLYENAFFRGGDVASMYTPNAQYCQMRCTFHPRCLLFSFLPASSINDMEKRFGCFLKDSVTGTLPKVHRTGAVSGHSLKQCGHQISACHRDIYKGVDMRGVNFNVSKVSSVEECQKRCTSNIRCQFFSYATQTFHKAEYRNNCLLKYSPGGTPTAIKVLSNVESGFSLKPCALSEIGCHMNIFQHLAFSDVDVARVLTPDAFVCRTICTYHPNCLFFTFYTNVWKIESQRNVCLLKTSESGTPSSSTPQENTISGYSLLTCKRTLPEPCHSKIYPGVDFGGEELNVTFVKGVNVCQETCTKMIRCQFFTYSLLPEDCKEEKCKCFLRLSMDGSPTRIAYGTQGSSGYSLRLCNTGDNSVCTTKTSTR

[2] = target: purified human Factor XIa (Homo sapiens (Human), UniProt P03951); assay: Factor XIa enzyme inhibition assay (chromogenic substrate S-2366)
Sequence of purified human Factor XIa (P03951 388-625): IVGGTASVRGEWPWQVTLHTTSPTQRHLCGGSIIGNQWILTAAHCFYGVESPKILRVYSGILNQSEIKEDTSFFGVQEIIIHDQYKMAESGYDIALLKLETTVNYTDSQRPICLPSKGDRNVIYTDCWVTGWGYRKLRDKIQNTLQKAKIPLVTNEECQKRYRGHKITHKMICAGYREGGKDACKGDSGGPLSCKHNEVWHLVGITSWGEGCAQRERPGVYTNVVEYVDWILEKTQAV
Sequence of purified human Factor XIa (P03951 19-387 partner): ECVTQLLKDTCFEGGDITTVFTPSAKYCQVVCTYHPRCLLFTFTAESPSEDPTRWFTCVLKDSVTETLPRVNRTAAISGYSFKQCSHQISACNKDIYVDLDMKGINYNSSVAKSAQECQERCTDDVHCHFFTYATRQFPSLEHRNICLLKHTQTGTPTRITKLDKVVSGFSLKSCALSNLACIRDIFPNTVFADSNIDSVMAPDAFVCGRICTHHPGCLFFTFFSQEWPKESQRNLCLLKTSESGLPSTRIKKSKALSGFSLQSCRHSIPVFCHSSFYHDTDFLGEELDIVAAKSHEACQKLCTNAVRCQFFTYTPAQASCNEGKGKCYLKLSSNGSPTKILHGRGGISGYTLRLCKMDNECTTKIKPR
Description: The effectiveness of compounds of the present invention as inhibitors of the coagulation Factors XIa, VIIa, IXa, Xa, XIIa, plasma kallikrein or thrombin, can be determined using a relevant purified serine protease, respectively, and an appropriate synthetic substrate. The rate of hydrolysis of the chromogenic or fluorogenic substrate by the relevant serine protease was measured both in the absence and presence of compounds of the present invention. […] A decrease in the rate of absorbance or fluorescence change in the presence of inhibitor is indicative of enzyme inhibition. […] The results of this assay are expressed as the inhibitory constant, Ki.
Values of Ki were determined by allowing the protease to react with the substrate in the presence of the inhibitor.

[3] = measured at 25° C. (no asterisk)
[4] = read-out: Factor XIa Ki, measured at 25° C.

Compound | Ki [1, 3] [nM] | Ki [2, 4] [nM] | also measured
CCOC(=O)Cc1ccc(NC(=O)C2c3cccc(-c4ccc(C(=O)NC)nc4)c3CCN2C(=O)c2cn(-c3cccc(Cl)c3F)nn2)cc1 (stereo not shown) [Example 116, Ethyl 2-(4-(2-(1-(3-Chloro-2-fluorophenyl)-1H-1,2,3-triazole-4-carbonyl)-5-(6-(methylcarbamoyl)pyridin-3-yl)-1,2,3,4-tetrahydroisoquinoline-1-carboxamido)phenyl)acetate, TFA salt] | 128 | 13.6 | 
COC1CCN(c2cccc3c2CCN(C(=O)[C@H]2CC(c4cccc(Cl)c4F)=NO2)[C@@H]3C(=O)Nc2cccnc2)CC1 (single isomer, unassigned) [Example 241, TFA salt] |  |  | Ki ([1]; measured at 37° C. (*)): 66.7 nM; Ki [2]: 8.78 nM
O=C(O)c1ccc(NC(=O)[C@H]2c3cccc(N4CCOCC4)c3CCN2C(=O)c2cnn(-c3cccc(Cl)c3F)c2)cc1 [Example 88, (R)-4-(2-(1-(3-Chloro-2-fluorophenyl)-1H-pyrazole-4-carbonyl)-5-morpholino-1,2,3,4-tetrahydroisoquinoline-1-carboxamido)benzoic acid, TFA salt] | 2080 | 391 | 
COC(C)(C)C1CCN(c2cccc3c2CCN(C(=O)c2cnn(-c4cccc(Cl)c4F)c2)C3C(=O)Nc2ccc(C(=O)O)cc2)CC1 (stereo not shown) [Example 224, 4-(2-(1-(3-Chloro-2-fluorophenyl)-1H-pyrazole-4-carbonyl)-5-(4-(2-methoxypropan-2-yl)piperidin-1-yl)-1,2,3,4-tetrahydroisoquinoline-1-carboxamido)benzoic acid, TFA salt] | 92 | < 5 | 
O=C(O)c1ccc(NC(=O)C2c3cccc(-c4cnoc4)c3CCN2C(=O)c2cn(-c3cccc(Cl)c3F)nn2)cc1 (stereo not shown) [Example 159, 4-(2-(1-(3-chloro-2-fluorophenyl)-1H-1,2,3-triazole-4-carbonyl)-5-(isoxazol-4-yl)-1,2,3,4-tetrahydroisoquinoline-1-carboxamido)benzoic acid] | 21.9 | 13.2 | 
COC1CCN(c2cccc3c2CCN(C(=O)C2(C)CC(c4cccc(Cl)c4F)=NO2)C3C(=O)Nc2ccc(C(=O)O)cc2)CC1 (stereo not shown) [Example 266, 4-(2-(3-(3-chloro-2-fluorophenyl)-5-methyl-4,5-dihydroisoxazole-5-carbonyl)-5-(4-methoxypiperidin-1-yl)-1,2,3,4-tetrahydroisoquinoline-1-carboxamido)benzoic acid, TFA salt] |  |  | Ki ([1]; measured at 25° C. (no asterisk), TFA salt): 687 nM; Ki ([2]; read-out: Factor XIa Ki, measured at 25° C., TFA salt): 420 nM
CN(C)C1CCN(c2cccc3c2CCN(C(=O)c2cn(-c4cccc(Cl)c4F)nn2)[C@@H]3C(=O)Nc2ccc(C(N)=O)cc2)CC1 [Example 101, (S)-N-(4-Carbamoylphenyl)-2-(1-(3-chloro-2-fluorophenyl)-1H-1,2,3-triazole-4-carbonyl)-5-(4-(dimethylamino)piperidin-1-yl)-1,2,3,4-tetrahydroisoquinoline-1-carboxamide, bis-TFA salt] | 1.75 | < 5 | 
O=C(O)c1ccc(NC(=O)C2c3cccc(N4CCC(N5CCCC5=O)CC4)c3CCN2C(=O)c2cnn(-c3cccc(Cl)c3F)c2)cc1 (stereo not shown) [Example 74, 4-(2-(1-(3-chloro-2-fluorophenyl)-1H-pyrazole-4-carbonyl)-5-(4-(2-oxopyrrolidin-1-yl)piperidin-1-yl)-1,2,3,4-tetrahydroisoquinoline-1-carboxamido)benzoic acid, TFA salt] | 27.6 | < 5 | 
COC1CCN(c2cccc3c2CCN(C(=O)c2cc(-c4cccc(Cl)c4F)ccn2)C3C(=O)Nc2ccc(C(=O)O)cc2)CC1 (stereo not shown) [Example 322, 4-(2-(4-(3-Chloro-2-fluorophenyl)picolinoyl)-5-(4-methoxypiperidin-1-yl)-1,2,3,4-tetrahydroisoquinoline-1-carboxamido)benzoic acid, 2 TFA salt] | 138 | 8.21 | 
O=C(Nc1ccccc1)C1c2cccc(Br)c2CCN1C(=O)c1cn(-c2cccc(Cl)c2F)nn1 (stereo not shown) [Example 119, 5-Bromo-2-(1-(3-chloro-2-fluorophenyl)-1H-1,2,3-triazole-4-carbonyl)-N-phenyl-1,2,3,4-tetrahydroisoquinoline-1-carboxamide] |  | 4440 | Ki ([1]; measured at 37° C. (*)): 1100 nM
CNC(=O)c1cncc(-c2cccc3c2CCN(C(=O)c2cn(-c4cccc(Cl)c4F)nn2)C3C(=O)Nc2ccc(C(=O)O)cc2)c1 (stereo not shown) [Example 37, 4-(2-(1-(3-chloro-2-fluorophenyl)-1H-1,2,3-triazole-4-carbonyl)-5-(5-(methylcarbamoyl)pyridin-3-yl)-1,2,3,4-tetrahydroisoquinoline-1-carboxamido)benzoic acid, TFA salt] | 12.9 | < 5 | 
COC1CCN(c2cccc3c2CCN(C(=O)c2nnn(-c4cccc(Cl)c4F)c2C)C3C(=O)Nc2ccc(C(=O)O)cc2)CC1 (racemic) [Example 253, 4-(2-(1-(3-chloro-2-fluorophenyl)-5-methyl-1H-1,2,3-triazole-4-cabonyl)-5-(4-methoxypiperidin-1-yl)-1,2,3,4-tetrahydroisoquinoline-1-carboxamido)benzoic acid, TFA salt] | 156 |  | Ki [2]: 11.1 nM
Cc1c2c(nn1C)CCN(C(=O)c1cn(-c3cccc(Cl)c3F)nn1)C2C(=O)Nc1ccc(C(=O)O)cc1 (stereo not shown) [Example 222, 4-(5-(1-(3-Chloro-2-fluorophenyl)-1H-1,2,3-triazole-4-carbonyl)-2,3-dimethyl-4,5,6,7-tetrahydro-2H-pyrazolo[4,3-c]pyridine-4-carboxamido)benzoic acid] | 10.4 | 30 | 
O=C(O)c1ccc(NC(=O)C2c3cccc(N4CCN(C5COC5)CC4)c3CCN2C(=O)c2cn(-c3cccc(Cl)c3F)nn2)cc1 (stereo not shown) [Example 226, 4-(2-(1-(3-Chloro-2-fluorophenyl)-1H-1,2,3-triazole-4-carbonyl)-5-(4-(oxetan-3-yl)piperazin-1-yl)-1,2,3,4-tetrahydroisoquinoline-1-carboxamido)benzoic acid, TFA salt] | 7.65 | < 5 | 
O=C(O)c1ccc(NC(=O)C2c3cccc(N4CCN(CC(F)(F)F)CC4)c3CCN2C(=O)c2cn(-c3cccc(Cl)c3F)nn2)cc1 (stereo not shown) [Example 229, 4-(2-(1-(3-Chloro-2-fluorophenyl)-1H-1,2,3-triazole-4-carbonyl)-5-(4-(2,2,2-trifluoroethyl)piperazin-1-yl)-1,2,3,4-tetrahydroisoquinoline-1-carboxamido) benzoic acid, TFA salt] |  | < 5 | Ki ([1]; measured at 37° C. (*)): 124 nM
O=C(O)c1ccc(NC(=O)C2c3cccc(Br)c3CCN2C(=O)c2cn(-c3cccc(Cl)c3F)nn2)cc1 (stereo not shown) [Example 110, 4-(5-Bromo-2-(1-(3-chloro-2-fluorophenyl)-1H-1,2,3-triazole-4-carbonyl)-1,2,3,4-tetrahydroisoquinoline-1-carboxamido)benzoic acid] | 23 | 72.7 | 
CN1CCC2(CCN(c3cccc4c3CCN(C(=O)c3cnn(-c5cccc(Cl)c5F)c3)C4C(=O)Nc3ccc(C(=O)O)cc3)CC2)C1=O (stereo not shown) [Example 107, 4-(2-(1-(3-Chloro-2-fluorophenyl)-1H-pyrazole-4-carbonyl)-5-(2-methyl-1-oxo-2,8-diazaspiro[4.5]decan-8-yl)-1,2,3,4-tetrahydroisoquinoline-1-carboxamido)benzoic acid, TFA salt] | 12.5 | < 5 | 
